# Laboratory results published in ChEMBL document CHEMBL1201862, “PubChem BioAssay data set” (2004).
#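 Grown in 96-well plates, cells were treated for 48 hours with each compound at five concentrations. Insufficient inhibition: endpoint recorded as highest concentration tested. At the GI50, growth is halved.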 Activity calls are given as the source filed them. No stated cut-off is given here; in the data, active = GI50 up to about 1.1 µM and inactive = higher.
# Columns and labels:
# Test in all cases: NCI tumour cell line growth inhibition, 48 h
# BT-549 = tested on: BT-549
# CAKI-1 = tested on: CAKI-1
# DU-145 = tested on: DU-145
# HCT-15 = tested on: HCT-15
# HT-29 = tested on: HT-29
# IGROV-1 = tested on: IGROV-1
# K562 = tested on: K562
# KM12 = tested on: KM12
# LOX IMVI = tested on: LOX IMVI
# MOLT-4 = tested on: MOLT-4
# NCI-H522 = tested on: NCI-H522
# SF-268 = tested on: SF-268
# SF-295 = tested on: SF-295
# SK-MEL-2 = tested on: SK-MEL-2
# SK-MEL-5 = tested on: SK-MEL-5
# SNB-75 = tested on: SNB-75
# SR = tested on: SR
# SW-620 = tested on: SW-620
# U-251 = tested on: U-251
# UACC-257 = tested on: UACC-257
Structure (SMILES),GI50 (BT-549),GI50 (CAKI-1),GI50 (DU-145),GI50 (HCT-15) [µM],GI50 (HT-29),GI50 (IGROV-1),GI50 (K562),GI50 (KM12),GI50 (LOX IMVI),GI50 (MOLT-4),GI50 (NCI-H522),GI50 (SF-268),GI50 (SF-295),GI50 (SK-MEL-2),GI50 (SK-MEL-5),GI50 (SNB-75),GI50 (SR),GI50 (SW-620),GI50 (U-251),GI50 (UACC-257)
CC1OC(OC2C(O)COC(OC3C(C)OC(OC4C(OC(=O)[C@]56CCC(C)(C)C[C@@H]5C5=CCC7[C@@]8(C)C[C@H](O)[C@H](OC9OC(CO)C(O)C(OC%10OC(CO)C(O)C(O)C%10O)C9O)[C@@](C)(CO)[C@@H]8CC[C@@]7(C)[C@]5(C)CC6)OCC(O)C4O)C(O)C3OC3OCC(O)C(O)C3O)C2O)C(O)C(O)C1O (stereo not given in full),9.57 µM (inactive),4.39 µM (inactive),7.1 µM (inactive),13.5,18.7 µM (inactive),6.12 µM (inactive),16.7 µM (inactive),8.61 µM (inactive),13.2 µM (inactive),16.6 µM (inactive),9.93 µM (inactive),12.2 µM (inactive),3.14 µM (inactive),3.47 µM (inactive),4.45 µM (inactive),16 µM (inactive),7.08 µM (inactive),6.35 µM (inactive),5.62 µM (inactive),4.63 µM (inactive)
CC(C)CCNC(=O)c1ccc(CNC(=O)/C=C/c2cccc(Oc3ccccc3)c2)cc1,60.1 µM (inactive),47.1 µM (inactive),70.3 µM (inactive),38.6,30.5 µM (inactive),67.5 µM (inactive),> 100 µM (inactive),44 µM (inactive),37.2 µM (inactive),> 100 µM (inactive),52.5 µM (inactive),37.3 µM (inactive),23.8 µM (inactive),31.3 µM (inactive),51.2 µM (inactive),34.9 µM (inactive),8.77 µM (inactive),41.4 µM (inactive),28.8 µM (inactive),23.2 µM (inactive)
CC1C(C#N)(C#N)C(C#N)=C(N)C1(C)[N+](=O)[O-] (stereo not given),42.1 µM (inactive),5.27 µM (inactive),> 100 µM (inactive),33.7,26.2 µM (inactive),37.2 µM (inactive),29.9 µM (inactive),> 100 µM (inactive),37.7 µM (inactive),25.4 µM (inactive),36.7 µM (inactive),> 100 µM (inactive),> 100 µM (inactive),> 100 µM (inactive),> 100 µM (inactive),89.5 µM (inactive),31.2 µM (inactive),51.1 µM (inactive),48 µM (inactive),79.8 µM (inactive)
CC(=O)O[C@H]1C(=O)[C@@]2(C)[C@H]([C@H](OC(=O)c3ccccc3)[C@]3(O)C[C@H](OC(=O)[C@H](O)[C@@H](NC(=O)OC(C)(C)C)c4ccco4)C(C)=C1C3(C)C)[C@]1(OC(C)=O)CO[C@@H]1C[C@@H]2O,< 0.005 µM (active),0.00802 µM (active),< 0.005 µM (active),0.00948,< 0.005 µM (active),0.00682 µM (active),< 0.005 µM (active),< 0.005 µM (active),0.00546 µM (active),0.00667 µM (active),< 0.005 µM (active),< 0.005 µM (active),0.00687 µM (active),0.00723 µM (active),< 0.005 µM (active),< 0.005 µM (active),0.053 µM (active),< 0.005 µM (active),0.00661 µM (active),11.1 µM (inactive)
COc1c(O)cc2c(c1O)C1O[C@H](CO)C(O)[C@H](O)[C@H]1OC2=O (stereo not given in full),> 100 µM (inactive),> 100 µM (inactive),> 100 µM (inactive),> 100,> 100 µM (inactive),> 100 µM (inactive),> 100 µM (inactive),> 100 µM (inactive),> 100 µM (inactive),> 100 µM (inactive),> 100 µM (inactive),> 100 µM (inactive),> 100 µM (inactive),> 100 µM (inactive),> 100 µM (inactive),> 100 µM (inactive),> 100 µM (inactive),> 100 µM (inactive),> 100 µM (inactive),> 100 µM (inactive)
CC1C(C#N)(C#N)C(C#N)=C(N)C1(Cl)[N+](=O)[O-] (stereo not given),13.3 µM (inactive),5.4 µM (inactive),16.7 µM (inactive),3.39,9.04 µM (inactive),7.45 µM (inactive),2.88 µM (inactive),18.7 µM (inactive),5.32 µM (inactive),1.72 µM (inactive),2.3 µM (inactive),14.9 µM (inactive),18.8 µM (inactive),25.6 µM (inactive),12.1 µM (inactive),11.7 µM (inactive),5.01 µM (inactive),2.17 µM (inactive),17.1 µM (inactive),12 µM (inactive)
C[C@H](CCC(=O)O)[C@H]1CC[C@@]2(C)[C@@H]3C(=O)C[C@H]4C(C)(C)[C@@H](O)CC[C@]4(C)[C@H]3C(=O)C[C@]12C,> 100 µM (inactive),> 100 µM (inactive),> 100 µM (inactive),> 100,> 100 µM (inactive),> 100 µM (inactive),> 100 µM (inactive),> 100 µM (inactive),> 100 µM (inactive),> 100 µM (inactive),> 100 µM (inactive),> 100 µM (inactive),> 100 µM (inactive),> 100 µM (inactive),> 100 µM (inactive),> 100 µM (inactive),> 100 µM (inactive),> 100 µM (inactive),> 100 µM (inactive),> 100 µM (inactive)
